Reference: patent US20070178532A1 (priority 2003, published 2007)

Legend:
[1] = tested on: tetramer-positive T cells from PBMC of HAM/TSP patients; test: intracellular perforin staining of tetramer-positive T cells (FACS); type: cell-based, human
Method: The above-described phenotypically defined T cell populations were further characterized with respect to perforin expression and cytolytic activity. For intracellular perforin staining, cells were fixed and permeabilization with Cytofix/CytoPerm kit (BD Pharmingen), and stained with monoclonal antibody specific for perforin (BD Pharmingen). The cells were subjected to further FACS analysis and the resulting data was analyzed with Cellquest software (Becton Dickinson) to obtain the mean fluorescence intensity (MFI) for the cell populations.

[2] = tested on: tetramer-positive T cells from PBMC of HAM/TSP patients; test: CD27 and CD45RA expression in HLA-GFP-acquiring tetramer-positive T cells after peptide presentation by HmyA2GFP cells; type: cell-based, human
CD8+ T cells in PBMCs = test: HLA-GFP acquisition by CD8+ T cells in PBMCs mixed with peptide-pulsed HmyA2GFP cells (FACS); conditions: PBMC of HAM/TSP patient #5
PBMCs = test: peptide loaded HLA-A*201 tetramer analysis of PBMCs (FACS); conditions: PBMC of HAM/TSP patient #5
[3] = CMV tetramer-positive cells, After contact with HmyA2GFP cells (1 hour)
[4] = HLA-GFP-acquiring tetramer-positive cells after stimulation with peptide-pulsed HmyA2GFP cells

For NLVPMVATV [CMV pp65], the “Perforin Expression Levels (in MFI)” value ([1]; HLA acquiring CMV tetramer-positive cells) was 9.543 MFI, the “change in the amount of perforin in virus-specific T cells after peptide stimulation” value ([1]; after stimulation with peptide-pulsed HmyA2GFP cells) was “significant decrease” and the “% CD27+ CD4SRA−” value [2, 3] was 2.51%. The “% CD27+ CD45RA+” value [2, 3] was 3.05%, the “% CD27− CD45RA+” value [2, 3] was 42.625% and the “% CD27− CD45RA−” value [2, 3] was 51.813%. For the same sequence, the “change of CD27+CD45RA− (memory) subset” value [2, 4] was “concomitant decrease”, the “change of CD27-CD45+ (effector) subset” value [2, 4] was “no significant change” and the “change of CD27-CD45RA− (effector/memory) subset” value [2, 4] was “significant increase”. For the same sequence, the “frequency of peptide-specific T cells in the PBMC population by the inventive method” value (CD8+ T cells in PBMCs) was 6.34% and the “peptide-specific T cells in the PBMCs by tetramer” value (PBMCs) was 6.57%.
